Laboratory results taken from US9701618B2, “Cannabidiol quinone derivatives” (VIVACELL BIOTECHNOLOGY ESPAÑA S.L., priority 2014, dated 2017).
“Also recorded” adds a separate entry of the source.

Assays:
PPARg [1] = target: T1, PPARg (Homo sapiens, UniProt P37231); details: cited from earlier work
T1 sequence (P37231 1-505): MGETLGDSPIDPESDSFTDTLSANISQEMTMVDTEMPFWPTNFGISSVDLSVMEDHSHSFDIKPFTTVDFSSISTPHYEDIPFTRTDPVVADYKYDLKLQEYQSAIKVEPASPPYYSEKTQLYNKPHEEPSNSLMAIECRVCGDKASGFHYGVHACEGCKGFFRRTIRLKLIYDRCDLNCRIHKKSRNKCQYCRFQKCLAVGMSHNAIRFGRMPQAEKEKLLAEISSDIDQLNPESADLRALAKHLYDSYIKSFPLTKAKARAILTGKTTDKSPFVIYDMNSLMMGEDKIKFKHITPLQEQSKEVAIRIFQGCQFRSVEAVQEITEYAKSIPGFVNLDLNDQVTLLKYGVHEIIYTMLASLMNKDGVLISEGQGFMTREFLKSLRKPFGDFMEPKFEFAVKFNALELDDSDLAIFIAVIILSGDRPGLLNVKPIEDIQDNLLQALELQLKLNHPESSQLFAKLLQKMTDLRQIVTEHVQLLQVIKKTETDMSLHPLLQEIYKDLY

PPARg [2] = experiment: PPARg transactivation assay (GAL4-PPARg/GAL4-luc) in HEK-293 and NIH-3T3 cells; assay type: cell-based, human; details: for PPARg transactivation (luciferase activity): treated 6 hours, compared with untreated cells
Experimental: The concentration of the tested compound (μM) is shown at the x-axis and the PPARg activation fold is shown at the y-axis. […]. Fold activation level was calculated, taking the control sample (−), without the presence of any PPARg agonist or activating agent, as reference. Data are expressed as mean±S.D. of at least three independent experiments.
To investigate the biological activities of the novel compounds we performed PPARg transactivation assays in HEK-293 cells and in NIH-3T3 fibroblasts cells.
HEK293T cells and human primary fibroblasts cells were maintained at 37° C. in a humidified atmosphere containing 5% CO2 in DMEM supplemented with 10% fetal calf serum (FBS), and 1% (v/v) penicillin/streptomycin. Rosiglitazone was purchased from Cayman Chemical Company (Ann Arbor, Mich., USA). All other reagents were from Sigma Co (St Louis, Mo., USA). HEK293T cells (2×10^3/well) (FIGS. 1A, 1B and 1C) or NIH-3T3 cells (5×10^3/well) (FIG. 2) were seeded in BD Falcon™ White with Clear Bottom 96-well Microtest™ Optilux™ Plate for 24 hours. Afterwards, cells were transiently co-transfected with the expression vector GAL4-PPARγ and the luciferase reporter vector GAL4-luc using Roti©-Fect (Carl Roth, Karlsruhe, Germany) following the manufacturer's instructions. Twenty-four h post-transfection, cells were pretreated with increasing doses of the compounds for 6 hours. Then, the cells were lysed in 25 mM Tris-phosphate pH 7.8, 8 mM MgCl2, 1 mM DTT, 1% Triton X-100, and 7% glycerol. Luciferase activity was measured in the cell lysate using a TriStar LB 941 multimode microplate reader (Berthold) and following the instructions of the Luciferase Assay Kit (Promega, Madison, Wis., USA). Protein concentration was measured by the Bradford assay (Bio-Rad, Richmond, Calif., USA). The background obtained with the lysis buffer was subtracted in each experimental value and the specific transactivation expressed as a fold induction over untreated cells. All the experiments were repeated at least three times. The plasmids used were Gal4-hPPARgamma (plasmid name: pCMV-BD-hPPARg, Sinal Laboratory, Dept. of Pharmacology, Dalhousie University) and Gal4 luc reporter plasmid that includes five Gal4 DNA binding sites fused to the luciferase gene. […]. Data are given as means with deviation standard error bars of three replicates. […].

PPARg [3] = experiment: Inhibition of Rosiglitazone-induced PPARg activation in HEK-293 cells; assay type: cell-based, human; details: pretreated 30 min, then RSZ 1 μM for 6 hours
Experimental: (A) HEK-293 cells were co-transfected with GAL4-PPARg and GAL4-luc. […] Protein lysates were prepared and analyzed for luciferase activity. The concentration of the tested compound (μM) is shown at the x-axis and the PPARg activation fold is shown at the y-axis.
(A) HEK293T cells were maintained at 37° C. in a humidified atmosphere containing 5% CO2 in DMEM supplemented with 10% fetal calf serum (FBS), and 1% (v/v) penicillin/streptomycin. Rosiglitazone was purchased from Cayman Chemical Company (Ann Arbor, Mich., USA). HEK293T cells (2×10^3/well) (FIG. 3A) were seeded in BD Falcon™ White with Clear Bottom 96-well Microtest™ Optilux™ Plate for 24 hours. Afterwards, cells were transiently co-transfected with the expression vector GAL4-PPARγ and the luciferase reporter vector GAL4-luc using Roti©-Fect (Carl Roth, Karlsruhe, Germany) following the manufacturer's instructions. Twenty-four h post-transfection, cells were pretreated with increasing doses of the compounds for 30 min and then stimulated with RSZ (1 μM) for 6 hours.

human COL1A2 promoter = experiment: TGFb-induced collagen type I gene transcription (COL1A2-Luc) in NIH-3T3 fibroblasts; assay type: cell-based; details: 30 min pre-incubation, TGFb 50 ng/ml 6 h
Experimental: To investigate the potential anti-fibrotic activity of CBD-derivatives NIH-3T3 fibroblast cells were transiently transfected with the plasmid COL1A2-Luc plasmid by using Roti©-Fect according to the manufacturer instructions. The COL1A2-luciferase construct contains sequences from −353 to +58 bp of the human COL1A2 promoter fused to the luciferase reporter gene (pGL2 basic, Promega, Madison, Wis.). […] Protein lysates were prepared and analyzed for luciferase activity. The concentration of the tested compound (μM) is shown at the x-axis and the percentage of COL1A2 activation is shown at the y-axis considering 100% activation the effect of TGFb in the absence of the compounds. Data are expressed as mean±SD of at least three independent experiments.
Cultured NIH-3T3 fibroblast cells were transiently transfected with the plasmid COL1A2-Luc plasmid that contains sequences from −353 to +58 bp of the human COL1A2 promoter fused to the luciferase reporter gene. Twenty-four hour later the cells were incubated with compounds III, V, VIII and X (as examples) for 30 min and treated with TGFb (50 ng/ml) for 6 h. Protein lysates were prepared and analyzed for luciferase activity.

NIH-3T3 cells = experiment: TGFb-induced collagen production, Sirius Red-Fast Green method; assay type: cell-based; details: 1 hour pre-incubation, TGFb 50 ng/ml 24 hours
Experimental: The production of collagen was carried out using the Sirius Red-Fast Green method, designed to quantify the amount of collagen and non-collagen proteins in cell pellets. The collagen production was determined at 540 nm and 605 nm in a Genesis 10 UV scanning spectrofluorometer (Thermo Fisher Scientific). To calculate the amounts of collagen, first, we corrected the OD 540 value by subtracting the contribution by Fast Green, which interfere in the absorbance at 540 nm. Fast Green contributes 29.1% of the OD 540 value. The Color equivalence is 37.8 for collagen and 2.04 for non-collagen proteins at OD 540 and […], respectively. Collagen(pg/100 μl cell pellet)={[OD 540−(OD 605×0.291)]/37.8×1000}×10^6.
The experiments were repeated three times, and the results were expressed as a fold induction over untreated cells.
The production of collagen was carried out using the Sirius Red-Fast Green method, designed to quantify the amount of collagen and non-collagen proteins in cell pellets. NIH-3T3 cells were seeded at a density of 5×10^4/well in 24 well plates and they were incubated overnight at 37° C. to allow cell attachment. Next, cells were pre-incubated 1 hour with the indicated concentrations of compounds III, V, VIII and X and TGFb (50 ng/ml) during 24 hours. After the treatment, the cell pellets were extracted overnight at 4° C. with 100 μl of 0.5M acetic acid. Then, 1 ml of the dye solution (0.1% Sirius Red and 0.1% Fast Green dissolved in saturated picric acid) was added to the cell pellets and mixed gently at room temperature for 30 minutes. Next, samples were centrifuged at 10,000 g for 5 minutes to pellet the collagen. The supernatants were carefully removed without disturbing the pellet and 1 ml of 0.1 M hydrochloric acid was added to each tube to remove unbound dye. Samples were centrifuged at 10,000 g for 5 minutes and 1 ml of 0.5 M sodium hydroxide was added to each tube and vortex vigorously to release the bound dye. Samples were centrifuged at 2500 g for 5 minutes to re-pellet any cell debris.
The collagen production was determined and the results were expressed as a fold induction over untreated cells.

Jurkat cells [4] = experiment: Mitochondrial membrane potential (MitoTracker Red CMXR, flow cytometry); assay type: cell-based; details: 2 hours, increasing concentrations
Jurkat cells [5] = experiment: ROS generation (H2DCF-DA, flow cytometry); details: 6 hours, increasing concentrations

| Compound | PPARg transactivation (luciferase activity) (PPARg [2]) | RSZ-induced PPARg transactivation (PPARg [3]) | TGFb-induced collagen type I gene transcription (human COL1A2 promoter) | TGFb-induced collagen production (NIH-3T3 cells) | mitochondrial membrane potential (Jurkat cells [4]) | intracellular ROS levels (Jurkat cells [5]) | also measured |
| --- | --- | --- | --- | --- | --- | --- | --- |
| CBD-1,4-dihydroxyquinone | – | – | – | – | – | – | affinity for PPARg compared to parent molecule CBD (PPARg [1]): higher affinity |
| C=C(C)[C@@H]1CCC(C)=C[C@H]1C1=C(O)C(=O)C(CCCCC)=C(NCC(C)C)C1=O [Compound IV, (1′R,6′R)-3-(Isobutylamine)-6-Hydroxy-3′-methyl-4-pentyl-6′-(prop-1-en-2-yl)-[1,1′-bi(cyclohexane)]-2′,3,6-triene-2,5-dione] | the most active compounds | – | – | – | – | – | – |
| C=C(C)[C@@H]1CCC(C)=C[C@H]1C1=C(O)C(=O)C(CCCCC)=C(NCc2ccccc2)C1=O [Compound VIII, (1′R,6′R)-3-(Benzylamine)-6-hydroxy-3′-methyl-4-pentyl-6′-(prop-1-en-2-yl)-[1,1′-bi(cyclohexane)]-2′,3,6-triene-2,5-dione] | the most active compounds | decrease | clearly inhibited | clearly inhibited | – | – | – |
| C=C(C)[C@@H]1CCC(C)=C[C@H]1C1=C(O)C(=O)C(CCCCC)=C(NC(C)C)C1=O [Compound VII, (1′R,6′R)-3-(Isopropylamine)-6-Hydroxy-3′-methyl-4-pentyl-6′-(prop-1-en-2-yl)-[1,1′-bi(cyclohexane)]-2′,3,6-triene-2,5-dione] | the most active compounds | – | – | – | did not induce a loss | not reactive | – |
| 4-formyl-methoxy-CBD-quinone | – | – | – | – | – | – | affinity for PPARg compared to parent molecule CBD (PPARg [1]): higher affinity |
| C=C(C)[C@@H]1CCC(C)=C[C@H]1C1=C(O)C(=O)C(CCCCC)=C(NCC)C1=O [Compound II, (1′R,6′R)-3-(Ethylamine)-6-hydroxy-3′-methyl-4-pentyl-6′-(prop-1-en-2-yl)-[1,1′-bi(cyclohexane)]-2′,3,6-triene-2,5-dione] | the most active compounds | – | – | – | – | – | – |
| C=C(C)[C@@H]1CCC(C)=C[C@H]1C1=C(O)C(=O)C(CCCCC)=C(NCCCC)C1=O [Compound V, (1′R,6′R)-3-(Butylamine)-6-hydroxy-3′-methyl-4-pentyl-6′-(prop-1-en-2-yl)-[1,1′-bi(cyclohexane)]-2′,3,6-triene-2,5-dione] | the most active compounds | decrease | clearly inhibited | clearly inhibited | did not induce a loss | not reactive; also recorded: unable to induce ROS accumulation significantly | – |
| CN(CCOc1ccc(CC2SC(=O)NC2=O)cc1)c1ccccn1 (stereo not shown) [Rosiglitazone, reference compound] | – | – | – | – | – | – | increase of PPARg activity (fold induction) (PPARg [2]; 1 μM concentration): more than 100 times |
| C=C(C)[C@@H]1CCC(C)=C[C@H]1C1=C(O)C(=O)C(CCCCC)=C(NCCC(C)C)C1=O [Compound X, (1′R,6′R)-3-(Isopentylamine-6-Hydroxy)-3′-methyl-4-pentyl-6′-(prop-1-en-2-yl)-[1,1′-bi(cyclohexane)]-2′,3,6-triene-2,5-dione] | – | decrease | clearly inhibited | clearly inhibited | did not induce a loss | not reactive; also recorded: unable to induce ROS accumulation significantly | – |
| C=C(C)[C@@H]1CCC(C)=C[C@H]1C1=C(O)C(=O)C(CCCCC)=C(NCCCCC)C1=O [Compound III, (1′R,6′R)-3-(Pentylamine)-6-Hydroxy-3′-methyl-4-pentyl-6′-(prop-1-en-2-yl)-[1,1′-bi(cyclohexane)]-2′,3,6-triene-2,5-dione] | the most active compounds | decrease | clearly inhibited | clearly inhibited | did not induce a loss | not reactive; also recorded: unable to induce ROS accumulation significantly | – |
| C=C(C)[C@@H]1CCC(C)=C[C@H]1C1=C(O)C(=O)C(CCCCC)=C(C(=O)OC/C=C(\C)CCC=C(C)C)C1=O [Compound XIII, (E)-3,7-dimethylocta-2,6-dienyl-4-hydroxy-5-((1R,6R)-3-methyl-6-(prop-1-en-2-yl)cyclohex-2-enyl)-3,6-dioxo-2-pentylcyclohexa-1,4-dienecarboxylate] | – | decrease | – | – | – | – | – |
| 4 methyl-CBD-quinone | – | – | – | – | – | – | affinity for PPARg compared to parent molecule CBD (PPARg [1]): higher affinity |
